Test systems include EKVX NSCLC; UACC-62 melanoma; HCT-15 colon; PC-3 prostate; SK-MEL-5 melanoma; NCI-H460 lung; HS 578T breast; A498 renal; ACHN renal; CAKI-1 renal.
What all share (assay): NCI anticancer screen, dose series, 48 h

SMILES strings stand for the structures.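 Method: 48-hour compound exposure of cells in 96-well plates, five concentrations, linear interpolation of endpoints. Here, GI50 denotes the concentration required for 50% inhibition of growth. TGI: concentration producing complete growth inhibition.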

In the case of `Fc1ccc(NC(c2ccc(F)cc2)C2CCN(CCCCc3ccccc3)CC2)cc1` (configuration not stated), the GI50 with EKVX NSCLC was 1.7 µM; in the test with UACC-62 melanoma it was 1.83 µM; in the test with HCT-15 colon, 1.45 µM; in the test with PC-3 prostate, 1.82 µM; with SK-MEL-5 melanoma it was 1.63 µM; with NCI-H460 lung, 1.71 µM. The GI50 in the test on HS 578T breast is 1.7 µM; in the test on A498 renal, 0.671 µM; in the test with ACHN renal, 1.68 µM. The TGI in the test with EKVX NSCLC turned out to be 4.42 µM; with UACC-62 melanoma, 3.46 µM; in the test on HCT-15 colon it was 2.89 µM; in the test on PC-3 prostate it was 3.76 µM; with SK-MEL-5 melanoma, 3.1 µM; with NCI-H460 lung it was 3.09 µM. Further, the TGI in the test with HS 578T breast was 3.9 µM; with A498 renal it was 2.21 µM; in the test with ACHN renal it was 3.05 µM.
For the compound `COc1ccc(-c2cc(/C=C/C(=O)c3ccc(N)cc3)[nH]n2)cc1OC`, the GI50 is 3.11 µM with UACC-62 melanoma; 1.7 µM in the test with HCT-15 colon; 3.71 µM in the test on PC-3 prostate; 3.16 µM in the test with SK-MEL-5 melanoma; 2.03 µM in the test on NCI-H460 lung; 6.58 µM with HS 578T breast. The GI50 is 2.37 µM with A498 renal and 1.67 µM with ACHN renal. Further, the TGI in the test with UACC-62 melanoma is 10.9 µM; in the test with HCT-15 colon, 5.37 µM; with PC-3 prostate, 19.8 µM; in the test on SK-MEL-5 melanoma, 11.5 µM; in the test with NCI-H460 lung, 4.53 µM; with HS 578T breast, above 100 µM. For the same compound, the TGI was determined as 7.09 µM in the test with A498 renal and 3.29 µM in the test with ACHN renal.
With `COc1ccc(-c2[nH]c3ccc(OC)cc3c2C=C(C#N)C#N)cc1`, the GI50 is 0.355 µM with UACC-62 melanoma; 0.766 µM in the test with HCT-15 colon; 0.342 µM in the test with PC-3 prostate; 0.321 µM in the test with SK-MEL-5 melanoma; 0.463 µM in the test on NCI-H460 lung; 0.924 µM in the test with HS 578T breast. Besides, the GI50 was 0.075 µM in the test with A498 renal and above 100 µM in the test with ACHN renal. In addition, the TGI with UACC-62 melanoma, in the test with HCT-15 colon, with PC-3 prostate, in the test on CAKI-1 renal, with SK-MEL-5 melanoma and in the test with NCI-H460 lung was above 100 µM in each case. The TGI in the test on HS 578T breast was above 100 µM; in the test with A498 renal, 3.97 µM; in the test on ACHN renal, above 100 µM.
For `CCCCCC/C=C\CCCCCCCCC(=O)c1cccc(OC)c1OC`, the TGI was above 100 µM in the test on EKVX NSCLC; above 100 µM in the test on UACC-62 melanoma; above 100 µM with HCT-15 colon; above 100 µM with PC-3 prostate; above 100 µM in the test on CAKI-1 renal; 60.9 µM in the test with SK-MEL-5 melanoma. Moreover, the TGI with HS 578T breast, in the test on A498 renal and with ACHN renal was above 100 µM each time.
For the compound `CNCc1ccc(-c2cc(-c3nc(-c4ccc(S(=O)(=O)C(C)C)cc4)cnc3N)on2)cc1`, the GI50 was 4.77 µM in the test on UACC-62 melanoma; 0.519 µM with HCT-15 colon; 1.97 µM in the test on PC-3 prostate; 2.71 µM in the test with CAKI-1 renal; 2.59 µM in the test with SK-MEL-5 melanoma; 0.322 µM in the test on NCI-H460 lung. Also, the GI50 was 4.61 µM in the test on HS 578T breast and 0.115 µM in the test with ACHN renal. Besides, the TGI came out at 26.6 µM with UACC-62 melanoma; 2.3 µM with HCT-15 colon; 8.32 µM with PC-3 prostate; 21.1 µM in the test with CAKI-1 renal; 12.3 µM in the test on SK-MEL-5 melanoma; 1.6 µM in the test on NCI-H460 lung. For the same compound, the TGI in the test on HS 578T breast came out at 38 µM; with A498 renal it was 2.03 µM; with ACHN renal it was 10.9 µM.
With `C#Cc1ccc(-n2c(/C=C/c3ccc(O)cc3)nc3ncccc3c2=O)cc1`, the GI50 in the test on UACC-62 melanoma is 4.01 µM; in the test with HCT-15 colon it was 4.65 µM; in the test with PC-3 prostate it was 3.87 µM; with CAKI-1 renal, 4.15 µM; in the test on SK-MEL-5 melanoma it was 2.24 µM; with NCI-H460 lung, 3.33 µM. Also, the GI50 is 3.24 µM with HS 578T breast, 2.48 µM in the test with A498 renal and 6.31 µM with ACHN renal. The TGI is above 100 µM with UACC-62 melanoma; above 100 µM with HCT-15 colon; 47.9 µM in the test on PC-3 prostate; above 100 µM in the test with CAKI-1 renal; 7.45 µM in the test on SK-MEL-5 melanoma; 14.1 µM in the test with NCI-H460 lung. In addition, the TGI in the test with HS 578T breast is 30 µM; with A498 renal it was 6.88 µM; with ACHN renal, above 100 µM.
As for `COc1ccccc1CNCCN1C(=O)c2ccc3c4c(ccc(c24)C1=O)C(=O)N(CCNCc1ccccc1OC)C3=O`, the GI50 in the test on UACC-62 melanoma was 1.77 µM; in the test on PC-3 prostate it was 0.317 µM; in the test with CAKI-1 renal it was 1.64 µM; in the test on SK-MEL-5 melanoma, 0.348 µM; in the test with NCI-H460 lung, 0.208 µM; in the test with HS 578T breast, 1.17 µM. Moreover, the GI50 with A498 renal is 1.49 µM; in the test on ACHN renal, 0.39 µM. Further, the TGI was 3.39 µM in the test with UACC-62 melanoma; 0.963 µM in the test with PC-3 prostate; 5.26 µM with CAKI-1 renal; 1.4 µM in the test with SK-MEL-5 melanoma; 0.458 µM in the test on NCI-H460 lung; 4.88 µM in the test with HS 578T breast. In addition, the TGI with A498 renal came out at 2.92 µM; with ACHN renal, 1.24 µM.
`Cc1cc(Cl)nc(N(CCNc2ccnc3cc(Cl)ccc23)Cc2ccco2)n1`: the GI50 was 2.68 µM in the test with EKVX NSCLC; 1.69 µM with UACC-62 melanoma; 1.61 µM with HCT-15 colon; 2.03 µM in the test with PC-3 prostate; 1.67 µM with SK-MEL-5 melanoma; 1.84 µM with NCI-H460 lung. The GI50 with HS 578T breast was 2.27 µM; in the test with A498 renal, 1.74 µM; with ACHN renal, 1.71 µM. The TGI in the test on EKVX NSCLC came out at 12.1 µM; with UACC-62 melanoma, 3.27 µM; in the test on HCT-15 colon it was 3.69 µM; with PC-3 prostate, 5.49 µM; in the test on SK-MEL-5 melanoma, 3.06 µM; in the test on NCI-H460 lung, 3.94 µM. The TGI was 6.32 µM in the test with HS 578T breast, 5.51 µM in the test with A498 renal and 3.4 µM in the test on ACHN renal.
As to `CCc1ccc(Nc2cc(C)c3ccc(O)cc3n2)cc1`, the GI50 was 8.57 µM with UACC-62 melanoma; 2.95 µM in the test on HCT-15 colon; 4.79 µM in the test on PC-3 prostate; 4.92 µM with CAKI-1 renal; 4.08 µM in the test with SK-MEL-5 melanoma; 4.92 µM in the test with NCI-H460 lung. For the same compound, the GI50 is 10.3 µM in the test on HS 578T breast, 16.6 µM in the test with A498 renal and 5.82 µM with ACHN renal. Besides, the TGI stood at 22.1 µM in the test with UACC-62 melanoma; 12.8 µM in the test on HCT-15 colon; 18.5 µM in the test with PC-3 prostate; 19 µM in the test on CAKI-1 renal; 14.3 µM in the test with SK-MEL-5 melanoma; 22 µM with NCI-H460 lung. The TGI with HS 578T breast amounted to 31.8 µM; in the test on A498 renal, 30.6 µM; in the test with ACHN renal it was 19.5 µM.
As for `CCCCCCCCCCCCCCNC(=O)Nc1ccc(Cl)c(Cl)c1`, the GI50 is 1.97 µM in the test with EKVX NSCLC; 3.69 µM with UACC-62 melanoma; 3.21 µM in the test on HCT-15 colon; 2.67 µM in the test with PC-3 prostate; 1.68 µM with SK-MEL-5 melanoma; 3.4 µM in the test on NCI-H460 lung. Also, the GI50 in the test on HS 578T breast was 3.14 µM; in the test on A498 renal it was 2.13 µM; with ACHN renal, 3.17 µM. In addition, the TGI is 6.15 µM with EKVX NSCLC; above 100 µM in the test with UACC-62 melanoma; above 100 µM with HCT-15 colon; above 37.1 µM with PC-3 prostate; 3.23 µM in the test on SK-MEL-5 melanoma; above 100 µM in the test with NCI-H460 lung. For the same compound, the TGI is 15 µM in the test with HS 578T breast, above 26.4 µM in the test with A498 renal and above 100 µM in the test on ACHN renal.
`COc1ccc(-c2nc3ccc(Cc4ccc5nc(-c6ccc(OC)cc6)[nH]c5c4)cc3[nH]2)cc1`: the GI50 is 0.0471 µM with UACC-62 melanoma; 0.0428 µM in the test on PC-3 prostate; 0.0509 µM in the test on CAKI-1 renal; 0.0193 µM in the test with SK-MEL-5 melanoma; 0.0335 µM in the test with NCI-H460 lung; 0.0334 µM in the test with HS 578T breast. Further, the GI50 with A498 renal is 0.018 µM; in the test with ACHN renal, 0.101 µM. Moreover, the TGI in the test on UACC-62 melanoma came out at 2.19 µM; in the test with PC-3 prostate it was 1.2 µM; in the test on CAKI-1 renal, 1.84 µM; with SK-MEL-5 melanoma, 1.27 µM; with NCI-H460 lung, 0.122 µM; with HS 578T breast, 2.52 µM. The TGI stood at 0.193 µM in the test with A498 renal and 1.96 µM in the test on ACHN renal.
Regarding `COc1cc(OC)c(OC)cc1/C=C/c1nc2ccccc2s1`, the TGI in the test with EKVX NSCLC, with HCT-15 colon, with PC-3 prostate, in the test on SK-MEL-5 melanoma, in the test on NCI-H460 lung and with HS 578T breast was above 100 µM each time. The TGI in the test on A498 renal and in the test with ACHN renal was above 100 µM in each case.
Consider `COCCN(Cc1ccc(F)cc1)c1ccc(CO)c(Cl)c1`, for which the GI50 is 0.653 µM in the test with UACC-62 melanoma; 30.6 µM in the test with HCT-15 colon; 29.4 µM in the test on PC-3 prostate; 21.2 µM in the test with CAKI-1 renal; 12.2 µM in the test on SK-MEL-5 melanoma; 1.9 µM in the test with NCI-H460 lung. Besides, the GI50 in the test on HS 578T breast is 60.9 µM; with A498 renal, 0.048 µM; in the test on ACHN renal it was 39.9 µM. In addition, the TGI was 4.28 µM with UACC-62 melanoma; above 100 µM in the test on HCT-15 colon; above 100 µM in the test on PC-3 prostate; above 100 µM in the test with CAKI-1 renal; 26.2 µM with SK-MEL-5 melanoma; above 43.6 µM in the test with NCI-H460 lung. In addition, the TGI with HS 578T breast was above 100 µM; with A498 renal, 0.193 µM; with ACHN renal, above 100 µM.

Source of the values: PubChem BioAssay (NCI).
